Reference: paper PMC4186439, “Characterization of a novel brain barrier ex vivo insect-based P-glycoprotein screening model” (Pharmacology Research & Perspectives, 2014)

What was measured:
[1] = system: locust brain barrier; design: method as in Andersson et al. [2013]; conditions: locust ex vivo model; ref Andersson et al. [2013]; cited from earlier work
[2] = system: locust brain barrier; conditions: for Concentration-dependent ex vivo brain uptake profile: exposure 3, 10, 30 and 100 μmol/L for 5 min, Fig. 3, n = 3
[3] = system: Pgp efflux transport; conditions: 3 μmol/L, 5 min, without verapamil; Fig. 5; n = 3
[4] = system: Pgp transporter; conditions: 3 and 10 μmol/L exposure, 5 min, with and without verapamil; Fig. 4; n = 3
[5] = system: Pgp transporter; assay: In vivo locust brain uptake (brain:hemolymph ratio) with or without co-injected Pgp inhibitor CsA; conditions: 15 min after injection, data not shown
[6] = locust hemolymph; injection of 20 μL of 20 μmol/kg dose; samples at 0.08, 0.25, 0.75, 2 and 6 h; n = 6
Procedure: Clearance of test compounds from the hemolymph was measured by repeated sampling of 10 μL hemolymph from the individual locust at 5, 15, 45, 120, and 360 min after intrahemolymph administration (20 μL) of the test compound solution (20 μmol/kg body weight). The 10 μL hemolymph samples were added to microcentrifuge tubes (Eppendorf) containing 40 μL ice-cold insect buffer.

[7] = system: Pgp transporter; conditions: locust brain barrier model; ref Nielsen et al. [2011]; cited from earlier work
[8] = system: Pgp transporter homologue (Mdr65); design: method as in Mayer et al. [2009]; conditions: Drosophila melanogaster; ref Mayer et al. [2009]; cited from earlier work
[9] = system: Pgp transporter; conditions: locust ex vivo and mouse Pgp KO/WT; ref Andersson et al. [2013]; Doran et al. [2005]; cited from earlier work

Compound: CC(NC(C)(C)C)C(=O)c1cccc(Cl)c1 (stereo not drawn) [Bupropion]
- Ex vivo brain uptake after increased exposure concentrations [1]: more than dose-related

Compound: NC(=O)N1c2ccccc2C=Cc2ccccc21 [Cbz, carbamazepine]
- Ratio of permeabilities (dynamic range of the locust ex vivo model) ([2]; Cbz (high permeability) versus atenolol (low permeability)): ~64
- Concentration-dependent ex vivo brain uptake profile [2]: linear increase
- Ex vivo brain uptake when exposure temperature raised from 2°C to 30°C [3]: markedly increased

Compound: CN(C)C(=O)C(CCN1CCC(O)(c2ccc(Cl)cc2)CC1)(c1ccccc1)c1ccccc1 [Loperamide, loperamide]
- Concentration-dependent ex vivo brain uptake profile [2]: increased more than linearly
- Ex vivo brain uptake/concentration on co-exposure to verapamil [4]: significantly increased
- Hemolymph concentration when injected alone or co-injected with CsA [5]: no difference

Compound: CC(C)NCC(O)COc1cccc2ccccc12 (stereo not drawn) [Propranolol, propranolol]
- Elimination (drug elimination constant calculated from C = Coe^−kt) [6]: −0.98 ^1 h^−1

Compound: C=C[C@H]1C[N@@]2CC[C@H]1C[C@@H]2[C@@H](O)c1ccnc2ccc(OC)cc12 [Quinidine, quinidine]
- Ex vivo brain uptake when exposure temperature raised from 2°C to 30°C [3]: corresponding increase in quinidine uptake was not seen
- Uptake into the locust brain with Pgp inhibitor verapamil [7]: significantly increased

Compound: COC(=O)c1ccccc1-c1c2ccc(=N)cc-2oc2cc(N)ccc12 [Rho123, rhodamine 123]
- Dm brain concentration when co-injected with the Pgp inhibitor CsA [8]: increases

Compound: CN(C)CCCC1(c2ccc(F)cc2)OCc2cc(C#N)ccc21 (stereo not drawn) [citalopram]
- Pgp transporter efflux liability [9]: affected by Pgp transporter efflux
